These results are taken from ChEMBL document CHEMBL1828599, “Synthesis, fluorescence and biodistribution of a bone-targeted near-infrared conjugate” (Eur J Med Chem, 2011).

Data set [1] relates to Liver. Kind of data set: Biodistribution in liver of BALB/C mouse at 1.7 x 10^-6 mol/kg, iv as single dose measured up to 60 mins by fluorescence imaging technique. Type of data set: ADME, organism-based. As to conditions: in vivo, 1 h; call rule not given here.
Data set [2] has as its system Liver. Kind of data set: Biodistribution in liver of BALB/C mouse at 1.7 x 10^-6 mol/kg, iv as single dose measured at 4 hrs by fluorescence imaging technique. In kind it is ADME, organism-based. As to conditions: in vivo.
In another data set the test system is Kidney. Kind of data set: Biodistribution in Kidney of BALB/C mouse at 1.7 x 10^-6 mol/kg, iv as single dose measured at 4 hrs by fluorescence imaging technique. In kind it is ADME, organism-based. As to conditions: in vivo.
Another data set concerns Duodenum. Kind of data set: Biodistribution in duodenum of BALB/C mouse at 1.7 x 10^-6 mol/kg, iv as single dose measured at 4 hrs by fluorescence imaging technique. In kind it is ADME, organism-based. As to conditions: in vivo.
Data set [3] has as its system Mus musculus. Kind of data set: Biodistribution in bone joint of BALB/C mouse at 1.7 x 10^-6 mol/kg, iv as single dose measured at 24 hrs by fluorescence imaging technique. In kind it is ADME, organism-based, Bone element. As to conditions: in vivo.
In data set [4] the test system is Mus musculus. Kind of data set: Biodistribution in leg bone of BALB/C mouse at 1.7 x 10^-6 mol/kg, iv as single dose measured at 24 hrs by fluorescence imaging technique. Type of data set: ADME, organism-based, Bone element. As to conditions: in vivo.
Data set [5] deals with Mus musculus. Kind of data set: Biodistribution in hip bone of BALB/C mouse at 1.7 x 10^-6 mol/kg, iv as single dose measured at 24 hrs by fluorescence imaging technique. As to conditions: in vivo. Type of data set: ADME, organism-based, Bone of hip region.
Data set [6] relates to Mus musculus. Kind of data set: Biodistribution in bone joint of BALB/C mouse at 1.7 x 10^-6 mol/kg, iv as single dose measured up to 8 days by fluorescence imaging technique. In kind it is ADME, organism-based, Bone element. As to conditions: in vivo, 192 h.
Data set [7] concerns Mus musculus. Kind of data set: Biodistribution in bone joint of BALB/C mouse at 1.7 x 10^-6 mol/kg, iv as single dose measured at 16 days by fluorescence imaging technique. Type of data set: ADME, organism-based, Bone element. As to conditions: in vivo, 384 h.
For data set [8], the system named is Mus musculus. Kind of data set: Biodistribution in soft tissue of BALB/C mouse at 1.7 x 10^-6 mol/kg, iv as single dose measured at 24 hrs by fluorescence imaging technique. In kind it is ADME, organism-based. As to conditions: in vivo.

Turning to `CC1(C)C(/C=C/C=C/C=C/C=C2/N(CCCCS(=O)(=O)[O-])c3ccc4ccccc4c3C2(C)C)=[N+](CCCCS(=O)(=O)[O-])c2ccc3ccccc3c21.[Na+]` [INDOCYANINE GREEN], the Drug uptake entry with Liver [1], in the data set on Liver [2], in the data set with Kidney, in the data set with Duodenum and in the data set on Mus musculus [3] was “Active” each time.

`CC1(C)C(/C=C/C=C/C=C/C=C2\N(CCCCC(=O)O)c3ccc4ccccc4c3C2(C)C)=[N+](CCCCS(=O)(=O)[O-])c2ccc3ccccc3c21`: the Drug uptake entry in the data set on Liver [1] is reported as “Active”; with Liver [2], “Active”; in the data set on Kidney it was “Active”; in the data set on Duodenum, “Active”; in the data set with Mus musculus [3], “Not Active”.

Regarding `CC1(C)C(/C=C/C=C/C=C/C=C2\N(CCCCC(=O)CCCC(O)(P(=O)([O-])O)P(=O)(O)O)c3ccc4ccccc4c3C2(C)C)=[N+](CCCCS(=O)(=O)[O-])c2ccc3ccccc3c21.[Na+]`, the Drug uptake result in the data set on Mus musculus [4] is on record as “Active”; with Mus musculus [5], “Active”; in the data set on Mus musculus [6], “Active”; with Mus musculus [7] it was “Not Active”; in the data set with Mus musculus [8], “Not Active”.

On to `CC1(C)C(/C=C/C=C/C=C/C=C2\N(CCCCC(=O)O)c3ccc4ccccc4c3C2(C)C)=[N+](CCCCC(=O)[O-])c2ccc3ccccc3c21`, for which the Drug uptake result with Liver [1] is recorded as “Active”; in the data set with Liver [2], “Active”; with Kidney it was “Active”; with Duodenum, “Active”; in the data set with Mus musculus [3], “Not Active”.
